The numbers were not newly measured in patent US20040247676A1, “Use of multi-layer controlled-release tablet comprising ropinirole for the manufacture of medicament for the treatment of fibromyalgia” (priority 2001, published 2004), which cites them from elsewhere.

The structures appear in SMILES notation. Counter-ions that a name gives are not always drawn.

The data set concerns fibromyalgia. Particulars: immediate release formulation.

On to `CCCN(CCC)CCc1cccc2c1CC(=O)N2` [ropinirole hydrochloride], for which the “effectiveness in the treatment of fibromyalgia” value is “particularly effective”.
